In patent US7829576B2 (priority 2008, dated 2010):
pIC50: −log10 of the molar value. “Also recorded” adds a separate entry of the source.

Columns and labels:
pain intensity = details: study completers, double-blind placebo-controlled; cited from earlier work
noradrenaline reuptake = details: synaptosomes from rat and primate brain; cited from earlier work
CYP2D6 [1] = target: T1, CYP2D6 (Homo sapiens, UniProt P10635); assay: CYP2D6 inhibition screening, recombinant enzyme, MAMC substrate; format: in vitro ADME
T1 construct: purchased BD Bioscience
Method: Protocol. […] The source of the enzyme was microsomes containing human recombinant CYP2D6 obtained from BD Bioscience. Conversion of MAMC to 7-hydroxy-4-(aminomethyl)coumarin was measured using a PerkinElmer Fusion with a 390 nm excitation filter and a 460 nm emission filter.

L5 SNL rats [2] = assay: L5 SNL model of neuropathic pain, tactile allodynia (von Frey); format: in vivo, rat; details: for antiallodynic effect over time, oral: 60 mg/kg PO
Male Sprague-Dawley rats = assay: Rat hot plate model of acute nociceptive pain; format: in vivo; details: 30 and 60 mg/kg IP, 50° C. hot plate (FIGS. 6A, 6B)
Method: Protocol. […] For the experiment, rats were acclimated to a 50° C. hot plate apparatus by gently placing them on the hot plate with all four paws on the surface. A timer was started and the latency (in seconds) until the rat licked any of its paws was measured. A 60 second cut-off to elicit a response was set to prevent tissue damage to the paws. After the rats elicited the paw lick response, they were removed from the apparatus and returned to their home cages for at least 30 minutes. Baseline paw lick latencies were determined prior to drug treatments in an identical manner to the acclimation test. Following drug treatments, the rats were placed on the hot plate apparatus at the appropriate time and treatment paw lick latencies were determined. All test groups contained at least six animals.

CYP2D6 [3] = target: T1, CYP2D6; assay: CYP2D6 inhibition (dextromethorphan O-demethylation) in human hepatic microsomes; format: in vitro ADME; details: pooled male human hepatic microsomes
Method: The 200 μL incubations were conducted in duplicate in 0.1 M potassium phosphate buffer (pH 7.4) with 0.02 mg of microsomal protein, 3 mM MgCl2, 1 mM EDTA and 7.5 μM of the probe substrate dextromethorphan in a 96-well polypropylene plate maintained at 37° C. After a 3-minute pre-incubation, the reaction was initiated with the addition of 2 mM NADPH. Upon completion of the 10-minute incubation period, aliquots of 100 μL were removed and added to a new plate containing 100 μL of internal standard in acidified acetonitrile to stop the reaction. The quenched samples were vortexed and the precipitated protein was removed by centrifugation. Supernatant aliquots of 100 μL were transferred to LC vials and 5 μL were injected onto the HPLC system for LC/MS/MS analysis of the metabolite dextrorphan. Standards and quality control samples were similarly prepared using authentic dextrorphan standards.
Dexthorphan concentrations were determined by high performance liquid chromatography with tandem mass spectrometric detection (LC/MS/MS) after protein precipitation with acidified acetonitrile containing internal standard. Separations were performed with a Flux Rheos 2000 quaternary pump (Leap Technologies, Inc., Carrboro, N.C.) using an XTerra® MS C18, 3.5 μm, 4.6×50 mm column (Waters Corporation, Milford, Mass.). […]

[4] = single dose, 10 to 500 mg; cited from earlier work
[5] = test system: patients hospitalized for depression; details: phase IIA; cited from earlier work
[6] = test system: noradrenergic, histaminergic and cholinergic receptors; details: published report; cited from earlier work
L5 SNL rats [7] = assay: L5 SNL model of neuropathic pain, tactile allodynia (von Frey); format: in vivo, rat
Method: Protocol. […] Neurosci. Methods 144:175-181. The test animals were placed in a Plexiglas chamber (10 cm×20 cm×25 cm) and habituated for 15 minutes. The chamber was positioned on top of a mesh screen so that von Frey monofilaments could be presented to the plantar surface of both hindpaws. Measurement of tactile sensitivity for each hind paw were obtained using the up/down method (Dixon, 1980, Annu Rev. Pharmacol. […] Each trial started with a von Frey force of 2 grams delivered to the right hind paw for approximately 1-2 seconds and then the left hind paw. If there was no withdrawal response, the next higher force was delivered. If there was a response, the next lower force was delivered. This procedure was performed until no response was made at the highest force (15 grams) or until four stimuli were administered following the initial response. The 50% paw withdrawal threshold for each paw was calculated using the following formula: […] Testing for tactile sensitivity was performed twice and the mean 50% withdrawal value assigned as the tactile sensitivity for the right and left paws for each animal. All test groups contained at least six animals. Protocol. […] In the experiment, animals were tested for tactile allodynia at 30 min post treatment. The sham-operated control group, which were operated on but not subject to nerve ligation, contained 4 animals. The treatment group contained at least six animals. Protocol. […] All test groups contained at least six animals. Protocol. […] The data obtained are depicted in FIG. 11.

[8] = cited from earlier work
5HT2C receptor = target: T2, 5HT2C receptor (Homo sapiens, UniProt P28335); details: published report; cited from earlier work
T2 sequence (P28335 33-458): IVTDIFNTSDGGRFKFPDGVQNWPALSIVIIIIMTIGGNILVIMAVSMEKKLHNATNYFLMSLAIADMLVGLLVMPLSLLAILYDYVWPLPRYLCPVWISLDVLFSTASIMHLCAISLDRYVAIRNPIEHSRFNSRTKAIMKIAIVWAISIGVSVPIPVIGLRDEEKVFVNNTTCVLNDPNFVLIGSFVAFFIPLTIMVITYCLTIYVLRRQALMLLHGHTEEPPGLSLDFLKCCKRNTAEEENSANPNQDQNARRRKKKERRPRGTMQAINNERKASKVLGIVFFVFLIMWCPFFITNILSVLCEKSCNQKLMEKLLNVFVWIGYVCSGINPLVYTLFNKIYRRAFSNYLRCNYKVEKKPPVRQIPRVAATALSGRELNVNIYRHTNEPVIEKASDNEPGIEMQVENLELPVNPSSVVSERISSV

human volunteers = details: 25-400 mg, cited from earlier work
major depression = details: subsequent clinical trials; cited from earlier work
FCA-treated rats = assay: FCA-induced mechanical hyperalgesia (inflammatory pain); format: in vivo, rat
Method: Protocol. […] For the assay, the methods of DeHaven-Hudkins et al., 1999, J. Pharmacol. Exp. Ther. 289:494-502 were used to determine mechanical hyperalgesia in rats 24 hours after intraplantar administration of 150 μL Freund's Complete Adjuvant (FCA). To determine paw pressure thresholds, the rats were lightly restrained in a gauze wrap and pressure was applied to the dorsal surface of the inflamed and uninflamed paw with a conical piston using a pressure analgesia apparatus (Stoelting Instruments, Wood Dale, Ill.). […] Paw pressure thresholds were determined before and at specified times after drug treatment. All test groups contained at least six animals. Protocol. A sample of (±)-beloxepin was prepared by milling the isolated (+)-beloxepin and (−)-beloxepin enantiomers together, bringing them up in solvent, and then removing the solvent (“Lot 9”). In this experiment, 30 mg/kg of (±)-beloxepin (“Lot 7”) or 30 mg/kg of the reconstituted racemic mixture (Lot 9) was administered in rats treated with FCA for 24 hours. Thirty minutes after treatment with vehicle, (±)-beloxepin, or reconstituted racemic mixture, paw pressure thresholds were determined. Thirty minutes is the time of peak mechanical antihyperalgesia of (±)-beloxepin.

[9] = test system: animal models of depression; details: preclinical models of depression; cited from earlier work
[10] = test system: rat hindpaw incisional model; assay: Rat hindpaw incisional pain model, tactile allodynia; format: in vivo; details: for antiallodynic effect over time: tested 30, 60, 120, 240 minutes
Method: Protocol. A time course experiment was performed with beloxepin in the hindpaw incision model. […] Protocol. […] Protocol.

male ICR mice = assay: Acetic acid-induced writhing (visceral pain); format: in vivo, mouse
Method: Protocol. […] Five minutes after treatment with acetic acid, the number of writhes was counted for 10 min. A writhe is defined as the extension of both front and hind limbs with a concave stretch of the abdomen. The mean number of writhes was determined for each treatment group and the percent inhibition of the vehicle response was calculated using the following formula: […]

T1 sequence (P10635 whole entry): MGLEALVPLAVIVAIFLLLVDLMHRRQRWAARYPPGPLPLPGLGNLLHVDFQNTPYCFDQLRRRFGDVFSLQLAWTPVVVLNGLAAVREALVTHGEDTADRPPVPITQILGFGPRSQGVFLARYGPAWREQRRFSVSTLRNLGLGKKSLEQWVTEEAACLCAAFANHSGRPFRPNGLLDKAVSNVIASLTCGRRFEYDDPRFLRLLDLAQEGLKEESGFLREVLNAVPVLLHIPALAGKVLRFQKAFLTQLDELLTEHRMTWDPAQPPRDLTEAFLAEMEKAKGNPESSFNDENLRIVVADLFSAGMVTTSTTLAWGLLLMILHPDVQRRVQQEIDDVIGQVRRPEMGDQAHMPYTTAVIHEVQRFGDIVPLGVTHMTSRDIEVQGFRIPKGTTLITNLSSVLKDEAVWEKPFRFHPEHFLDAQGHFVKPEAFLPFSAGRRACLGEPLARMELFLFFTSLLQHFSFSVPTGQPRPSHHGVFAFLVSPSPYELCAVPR

## CNCCCC12CCC(c3ccccc31)c1ccccc12 [maprotiline]
Pain intensity
  reduction in pain intensity: 45%

## Fc1ccc([C@@H]2CCNC[C@H]2COc2ccc3c(c2)OCO3)cc1 [paroxetine]
Pain intensity
  reduction in pain intensity: 26%

## Cc1cccc2c1Oc1ccccc1C1(O)CCN(C)CC21 (racemic) [beloxepin, cis-1,2,3,4,4a,13b-hexahydro-2,10-dimethyldiben-[2,3:6,7]oxepino[4,5c]pyridine-4a-ol]]
Noradrenaline reuptake
  affinity for other monoamine carriers (serotonin and dopamine transporters) less than for noradrenaline reuptake: greater than 100 fold
CYP2D6 [1]; human recombinant CYP2D6 microsomes, read-out: CYP2D6 IC50 (initial screening, MAMC substrate)
  pIC50: 6.27
CYP2D6 [1]; human, probe 7-methoxy-4-(aminomethyl)-coumarin (MAMC)
  inhibition at 10 µM: 97%
L5 SNL rats [2]; 30 mg/kg IP (FIG. 2)
  tactile antiallodynic effect, % of that observed with sham-operated animals: ~100%
L5 SNL rats [2]; 30 mg/kg IP (FIG. 3)
  observed mean threshold: approximately 15 g
L5 SNL rats [2]; 30 mg/kg IP, 14 days post surgery, 30 min post treatment (FIG. 1)
  maximal antiallodynic effect, % of the threshold of vehicle-treated rats: 829%
L5 SNL rats [2]; 30 mg/kg IP, 14 days post surgery, tested 30, 60, 120, 240 min
  antiallodynic effect over time: significant antiallodynia effects at the 30, 60 and 120 min time points
L5 SNL rats [2]; 30 mg/kg IP, 16 days post surgery, 30 min post treatment (FIG. 2)
  antiallodynic effect, % of the threshold for vehicle-treated rats: 852%
L5 SNL rats [2]; 7 days post surgery, tested 30, 60, 120, 240 min (FIG. 10)
  antiallodynic effect over time, oral: significant antiallodynic effects at all four time points
L5 SNL rats [2]; 8 days post surgery, tested 30, 60, 120, 240 min (FIG. 4)
  antiallodynic effect over time, oral: significant and robust antiallodynic effects at the 30 and 60 min time points
L5 SNL rats [2]; each 30 mg/kg IP (FIG. 5)
  antiallodynic effect compared with duloxetine, amitriptyline, reboxetine: the most effective of the compounds tested
Male Sprague-Dawley rats
  anti-nociceptive activity (paw lick latency): nearly as effective as 3 mg/kg morphine; also recorded: almost equivalent to that of 3 mg/kg morphine
CYP2D6 [3]
  pIC50: 4.50
[4]
  t1/2: 11 to 15 h
  tmax: one to four
[5]
  fraction of patients with a moderate to good response (HAMD score reduction): ⅔
[6]
  affinity for noradrenergic, histaminergic and cholinergic receptors: no or very weak affinity
L5 SNL rats [7]; 30 mg/kg IP, L5 SNL rats
  side effects following treatment: No side effects were observed
L5 SNL rats [7]; each 30 mg/kg IP (FIG. 11)
  antiallodynic efficacy compared with duloxetine: comparable in efficacy to duloxetine
  peak antiallodynic effect compared with esreboxetine: greater than that measured in rats treated with esreboxetine
[8]; healthy normal subjects, 50 to 800 mg
  t1/2, steady state: 12 to 14 h
[8]; up to 800 mg/day
  adverse effects in healthy volunteers: No important adverse effects were observed
5HT2C receptor
  affinity for the 5HT2C receptor: modest affinity
Human volunteers; EEG
  total duration of nocturnal REM sleep: decreased total duration of nocturnal REM sleep
Human volunteers; acutely and sub-chronically, EEG
  REM latency: dose-dependently prolonged REM latency
Human volunteers; human volunteers
  sedation or other side effects in sleep studies: No sedation or other side effects were observed
Major depression
  efficacy for the treatment of major depression: insufficient efficacy
FCA-treated rats; 30 mg/kg (FIG. 7)
  reversal of FCA-induced hyperalgesia: nearly completely reversed hyperalgesia; also recorded: nearly complete reversal of hyperalgesia
FCA-treated rats; 30 mg/kg IP, 24 hours after FCA, 30 min after treatment (FIG. 9)
  mechanical antihyperalgesic efficacy: 96±16%
[9]
  sedation, motor impairment, side effects in animal tests: did not cause sedation, motor impairment or other untoward side effects
[10]; 3 mg/kg IV, 24 hours post-surgery, 30 minute time point (FIG. 14)
  maximum hindpaw withdrawal threshold: ~21 grams
[10]; 3 mg/kg IV
  antiallodynic effect over time: significant antiallodynic effect at the 30 and 120 minute time points
[10]; 30 mg/kg IP, 30 minute time point (FIG. 12)
  maximum threshold, % of the threshold value for vehicle treated rats: 544%
[10]; 30 mg/kg IP, 24 hours post surgery, 30 minute time point (FIG. 12)
  maximum hindpaw withdrawal threshold: ~29 grams
[10]; 30 mg/kg IP
  antiallodynic effect over time: significant antiallodynic effect at all four time points
[10]; 60 mg/kg PO, 24 hours post-surgery, 30 and 60 minute time points (FIG. 13)
  maximum hindpaw withdrawal threshold: ~24 grams
[10]; 60 mg/kg PO
  antiallodynic effect over time: significant antiallodynic effect at all four time points
[10]; IV, rats
  3 mg/kg IV dose lower than a dose that produced a significant respiratory or cardiovascular side effect: 10 fold
Male ICR mice; Mus musculus, oral, 25 min prior to 0.6% acetic acid IP (FIG. 8), read-out: ED50 inhibition of acetic acid-induced writhing
  ED50: 13.3 mg/kg
Male ICR mice; oral (FIG. 8)
  inhibition of acetic acid-induced writhing, dose dependence: dose-dependent fashion
